Key:
[1] = Body weight of SAS xenograft mice; assay type: in vivo, BALB/c nude (nu/nu) mice; conditions: 5 successive days
Description: FIGS. 6A-6C show oral administration of ginsenoside M1 reduced human oral cancer growth in mice. Human oral cancer cell line SAS cells Xenografts mice with tumor size around 40˜60 mm^3 were given a daily oral administration of either ginsenoside M1 (30-90 mg/kg) or vehicle for 5 successive days. (FIG. 6A) The tumor volume was determined by measurement of the length (L) and width (W) of the tumor and calculated as tumor volume (mm3)=(L×W^2)/2. (FIG. 6B) The tumor weight was measured after the mice were scarified. (FIG. 6C) The body weight of mice was recorded. The data were expressed as mean±SD; n=6. ** and *** indicate a significant difference at the level of p<0.01 and p<0.001, respectively, compared to vehicle-control mice. […]
FIGS. 7A-7C show subcutaneous (SC) injection of ginsenoside M1 reduced human oral cancer growth in mice. […] (FIG. 7A) The tumor volume was determined by measurement of the length (L) and width (W) of the tumor and calculated as tumor volume (mm3)=(L×W^2)/2. (FIG. 7B) The tumor weight was measured after the mice were scarified. (FIG. 7C) The body weight of mice was recorded. The data were expressed as mean±SD; n=6. ** indicates a significant difference at the level of p<0.01, compared to vehicle-control mice. […]
To evaluate the anti-cancer activity of ginsenoside M1 in vivo, human oral cancer xenografts were used. […] The TV on day n (TVn) was calculated as TV (mm3)=(L×W^2)/2. […]

[2] = test system: human oral cancer cells SAS xenografts; assay: Tumor growth in human oral cancer SAS xenograft mice; assay type: in vivo, BALB/c nude (nu/nu) mice; conditions: 5 successive days
Description: FIGS. 6A-6C show oral administration of ginsenoside M1 reduced human oral cancer growth in mice. Human oral cancer cell line SAS cells Xenografts mice with tumor size around 40˜60 mm^3 were given a daily oral administration of either ginsenoside M1 (30-90 mg/kg) or vehicle for 5 successive days. (FIG. 6A) The tumor volume was determined by measurement of the length (L) and width (W) of the tumor and calculated as tumor volume (mm3)=(L×W^2)/2. (FIG. 6B) The tumor weight was measured after the mice were scarified. (FIG. 6C) The body weight of mice was recorded. The data were expressed as mean±SD; n=6. ** and *** indicate a significant difference at the level of p<0.01 and p<0.001, respectively, compared to vehicle-control mice. (One-way ANOVA with Dunnett's multiple comparisons test).
FIGS. 7A-7C show subcutaneous (SC) injection of ginsenoside M1 reduced human oral cancer growth in mice. Human oral cancer cell line SAS cells Xenografts mice with tumor size around 40˜60 mm^3 were given a daily SC injection of either ginsenoside M1 (20 mg/kg) or vehicle for 5 successive days. (FIG. 7A) The tumor volume was determined by measurement of the length (L) and width (W) of the tumor and calculated as tumor volume (mm3)=(L×W^2)/2. (FIG. 7B) The tumor weight was measured after the mice were scarified. (FIG. 7C) The body weight of mice was recorded. The data were expressed as mean±SD; n=6. ** indicates a significant difference at the level of p<0.01, compared to vehicle-control mice. (One-way ANOVA with Dunnett's multiple comparisons test).
To evaluate the anti-cancer activity of ginsenoside M1 in vivo, human oral cancer xenografts were used. Six-week-old male congenital athymic BALB/c nude (nu/nu) mice were purchased from BioLASCO Taiwan Co., Ltd (Ilan, Taiwan), and housed in a room under controlled temperature (23±3° C.) and relative humidity (50±5%). Animal experiments were performed with the approval of the Institutional Animal Care and Use Committee of the National Ilan University (approval number: No. 106-13) according to the NIH Guide for the Care and Use of Laboratory Animals. Xenografts mice were established by subcutaneous (SC) injection of 2×10^6 human oral cancer cells SAS (in 75 μl PBS+75 μl Matrigel) on the backs of the nude mice. After the tumor has reached about 40˜60 mm^3 in size, the mice were randomized into six groups (six mice each): (1) oral vehicle control; (2) oral 30 mg/kg ginsenoside M1; (3) oral 60 mg/kg ginsenoside M1; (4) oral 90 mg/kg ginsenoside M1; (5) SC vehicle control; (6) SC 20 mg/kg ginsenoside M1. The mice were given a daily oral administration or SC injection of either vehicle or ginsenoside M1 for 5 successive days. The mice were scarified at 24 h after received the last dose of ginsenoside M1 or vehicle. The tumor volume (TV) was determined by measurement of the length (L) and width (W) of the tumor. The TV on day n (TVn) was calculated as TV (mm3)=(L×W^2)/2. The relative tumor volume on day n (RTVn) versus day 0 was expressed according to the following formula: RTVn=TVn/TV0. […] The data were expressed as mean±SD; n=6. ** and *** indicate a significant difference at the level of p<0.01 and p<0.001, respectively, compared to vehicle-control mice. (One-way ANOVA with Dunnett's multiple comparisons test).

[3] = test system: human oral cancer OECM-1 cells; assay: Migration of OECM-1 cells, wound healing assay; assay type: cell-based; conditions: 18 h
Description: FIGS. 5A-5B show ginsenoside M1 reduced the migration ability of human oral cancer cells. Human oral cancer cell line SAS cells (FIG. 5A) or OECM-1 cells (FIG. 5B) were cultured in 6-cm dish until the cells reached 100% confluence forming a monolayer. A clear zone was created by scratching using a sterile 200-μl pipette tip. The cells were incubated for 24 h (SAS cells) or 18 h (OECM-1 cells) with ginsenoside M1 (5˜10 μg/ml) or (0.1% DMSO). The migration distance was measured and compared to the vehicle-control cells. The data were expressed as mean±SD; n=3. *** indicates a significant difference at the level of p<0.001, compared to vehicle-control cells. (One-way ANOVA with Dunnett's multiple comparisons test).
The cell migration ability was measured by wound healing assay. Plate 5×10^6 human oral cancer SAS cells or OECM-1 cells per 6-cm dish in 2 ml of culture medium and were grown overnight at 37° C. in a 5% CO2 incubator until the cells reached 100% confluence forming a monolayer. We used a sterile 200-μl pipette tip to create a scratched clear zone on the culture dish, and the wounds photographed by a phase contrast microscope as the baseline. […] The data were expressed as mean±SD; n=3. *** indicates a significant difference at the level of p<0.001, compared to vehicle-control cells. […]

SMILES: CC(C)=CCC[C@](C)(O[C@@H]1OC(CO)[C@@H](O)[C@@H](O)C1O)[C@H]1CC[C@]2(C)C1[C@H](O)CC1[C@@]3(C)CC[C@H](O)C(C)(C)C3CC[C@]12C (stereo partly drawn) [ginsenoside M1, 20-O-β-D-glucopyranosyl-20(S)-protopanaxadiol]
- body weight of mice ([1]; SC injection 20 mg/kg daily): did not significantly affect
- body weight of mice ([1]; oral 30-90 mg/kg daily): did not significantly affect
- tumor size compared to vehicle control group ([2]; SC injection 20 mg/kg daily): significantly reduced
- tumor weight compared to vehicle control group ([2]; SC injection 20 mg/kg daily): significantly reduced
- tumor size compared to vehicle control group ([2]; oral 30 mg/kg daily): did not significant reduce
- tumor weight compared to vehicle control group ([2]; oral 30 mg/kg daily): did not significant reduce
- tumor size compared to vehicle control group ([2]; oral 60 mg/kg daily): did not significant reduce
- tumor weight compared to vehicle control group ([2]; oral 60 mg/kg daily): did not significant reduce
- tumor size compared to vehicle control group ([2]; oral 90 mg/kg daily): significantly reduced
- migration ability of OECM-1 cells ([3]; 5 μg/ml): significantly inhibited
- migration ability of OECM-1 cells ([3]; 10 μg/ml): significantly inhibited
